Reference: ChEMBL document CHEMBL1201862, “PubChem BioAssay data set” (2004)
Calls of active or inactive are those of the source.

Experiments:
[1] = Luminescence Cell-Based Dose Response HTS to Identify Inhibitors of 5'UTR Stem-Loop Driven Prion Protein mRNA Translation in H4 Neuroglioblastoma Cells. [Related pubchem assays: 1827 (Project Summary), 1813 (Primary HTS)]; format: functional
[2] = growth suppression of PTEN-null colon cells, dose response, cell-based, HCT116 PTEN knockout (AID 1047); format: functional;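 also: HCT116 colon tumor cells with PTEN knocked out; cells exposed to compound for 60 hours before readout; potency for loss of cell viability measured by luminescence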
[3] = growth suppression of beta-catenin-knockout colon cells, dose response, cell-based, HCT116, human colon tumor (AID 1045); format: functional;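 also: HCT116 colon tumor cells with beta catenin knocked out; cells exposed to compound for 60 hours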
[4] = inhibitors of SNCA 5'UTR-driven reporter translation, confirmation, H4 neuroglioma cells, luminescence (AID 1988); format: functional, cell-based
[5] = inhibitors of firefly luciferase expression or activity, dose response, H4 neuroglioma cells, luminescence (AID 1990); format: functional, cell-based
[6] = biological target: T1, G-protein coupled receptor 55 (Homo sapiens, UniProt Q9Y2T6); assay: GPR55 antagonists blocking LPI-driven arrestin recruitment, primary screen, imaging, U2OS, beta-arrestin-GFP, LPI agonist (AID 2013); format: functional;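 also: antagonist potency measured as reduced agonist-driven arrestin aggregation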
[7] = biological target: DNA dC->dU-editing enzyme APOBEC-3A (Homo sapiens, UniProt P31941); assay: APOBEC3A DNA deaminase inhibitors, dose response, biochemical (AID 504722); format: functional
Phosphomannomutase 2 = biological target: T2, Phosphomannomutase 2 (Homo sapiens, UniProt O15305); assay: Counter screen SAR assay for PMM2 inhibitors via a fluorescence intensity assay. [Related pubchem assays (depositor defined):AID1545, AID1574]
T2 sequence (O15305 whole entry): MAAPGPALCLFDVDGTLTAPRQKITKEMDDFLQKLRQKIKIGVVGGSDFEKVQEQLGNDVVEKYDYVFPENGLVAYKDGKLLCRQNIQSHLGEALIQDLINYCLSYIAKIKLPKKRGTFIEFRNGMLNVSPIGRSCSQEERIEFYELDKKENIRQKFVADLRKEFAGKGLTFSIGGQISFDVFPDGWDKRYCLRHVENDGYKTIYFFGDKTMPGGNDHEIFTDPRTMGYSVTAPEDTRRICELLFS

Beta Lactamase [8] = biological target: T3, Beta Lactamase (Pseudomonas aeruginosa, UniProt Q932Y6); assay: beta-lactamase reporter inhibitor potency, dose response, artefact control for NOD2-RIPK2 interaction inhibitor project, BLA reporter cells, FRET fluorescence (AID 651552); format: functional, cell-based
[9] = biological target: T4, Rac GTPase-activating protein 1 (Homo sapiens, UniProt Q9H0H5); assay: MgcRacGAP GTPase-activating activity inhibitors, confirmation, biochemical, ADP Hunter fluorescence, primary and confirmatory (AID 624330); format: functional
T4 sequence (Q9H0H5 whole entry): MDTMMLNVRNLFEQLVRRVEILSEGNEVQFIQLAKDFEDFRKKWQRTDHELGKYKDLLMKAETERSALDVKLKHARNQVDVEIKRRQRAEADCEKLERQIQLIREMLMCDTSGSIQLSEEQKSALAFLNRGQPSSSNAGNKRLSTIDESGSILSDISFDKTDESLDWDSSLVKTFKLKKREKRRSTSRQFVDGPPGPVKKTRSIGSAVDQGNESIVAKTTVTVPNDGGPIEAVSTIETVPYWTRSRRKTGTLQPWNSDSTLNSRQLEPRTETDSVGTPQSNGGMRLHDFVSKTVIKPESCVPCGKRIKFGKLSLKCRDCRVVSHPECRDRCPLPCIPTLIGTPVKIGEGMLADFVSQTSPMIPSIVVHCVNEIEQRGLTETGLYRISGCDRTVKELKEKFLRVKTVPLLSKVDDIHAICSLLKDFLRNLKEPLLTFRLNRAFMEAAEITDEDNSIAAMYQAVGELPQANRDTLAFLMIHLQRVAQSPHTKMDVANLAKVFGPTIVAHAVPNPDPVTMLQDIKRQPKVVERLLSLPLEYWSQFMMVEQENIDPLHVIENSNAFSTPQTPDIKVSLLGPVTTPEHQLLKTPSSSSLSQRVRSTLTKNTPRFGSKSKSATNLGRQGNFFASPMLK

[10] = Fluorescence-based cell-based high throughput dose response assay for inhibitors of the interaction of nucleotide-binding oligomerization domain containing 2 (NOD2) and the receptor-interacting serine-threonine kinase 2 (RIPK2).; format: functional; conditions: Homo sapiens
CHO = assay: cytotoxicity in TLR9-MyD88 CHO cells, dose response, cytotoxicity control for TLR9-MyD88 binding inhibitor project, cell-based, luminescence (AID 588339); format: functional, hamster; conditions: Cricetulus griseus;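 also: CHO cells stably coexpressing TLR9 and MyD88 fusions from primary screen; compound exposure lasted 48 hours before viability readout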
[11] = biological target: Mitochondrial peptide methionine sulfoxide reductase (Bos taurus, UniProt P54149); assay: Absorbance-based biochemical high throughput dose response assay for activators of Methionine sulfoxide reductase A (MsrA).; format: functional
[12] = HeLa cell cytotoxicity, dose response, cytotoxicity control for MgcRacGAP inhibitor project (AID 624300); format: functional
[13] = biological target: T5, Alkaline phosphatase, tissue-nonspecific isozyme (Homo sapiens, UniProt P05186); assay: human TNAP enzyme inhibitors, SAR follow-up, biochemical, luminescent, dose response (AID 1056)
T5 sequence (P05186 whole entry): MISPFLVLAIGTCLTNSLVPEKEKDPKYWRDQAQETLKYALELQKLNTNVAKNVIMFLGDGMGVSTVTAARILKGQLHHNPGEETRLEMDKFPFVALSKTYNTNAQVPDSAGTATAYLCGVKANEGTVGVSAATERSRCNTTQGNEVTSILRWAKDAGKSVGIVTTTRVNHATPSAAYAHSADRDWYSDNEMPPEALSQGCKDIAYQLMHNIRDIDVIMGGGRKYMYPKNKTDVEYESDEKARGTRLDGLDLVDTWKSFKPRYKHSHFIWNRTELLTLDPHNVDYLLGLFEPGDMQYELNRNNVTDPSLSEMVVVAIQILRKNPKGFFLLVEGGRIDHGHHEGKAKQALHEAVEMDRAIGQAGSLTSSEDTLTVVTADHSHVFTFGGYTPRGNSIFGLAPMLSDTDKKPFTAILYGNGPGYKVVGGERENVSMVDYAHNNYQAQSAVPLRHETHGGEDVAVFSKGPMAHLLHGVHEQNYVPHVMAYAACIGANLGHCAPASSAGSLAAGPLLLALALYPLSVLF

Beta Lactamase [14] = biological target: T3, Beta Lactamase; assay: beta-lactamase reporter inhibitor potency, dose response, artefact control for TLR9-MyD88 binding inhibitor project, BLA reporter cells, FRET fluorescence (AID 588341); format: cell-based;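 also: cell based assay in CHO-K1 cells stably expressing beta-lactamase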
[15] = biological target: Phosphoethanolamine/phosphocholine phosphatase (Homo sapiens, UniProt Q8TCT1); assay: SAR assay for compounds that inhibit PHOSPHO1. [Related pubchem assays (depositor defined):AID1545, AID1565, AID1574]
Hexokinase = biological target: T6, Hexokinase (Trypanosoma brucei, UniProt Q38C41); assay: Confirmation assay for inhibitors of Trypanosoma brucei hexokinase 1-Analogue-first series. [Related pubchem assays (depositor defined):AID1430, AID1632, AID2516, AID2560, AID2579, AID2600, AID449725, AID492951]; format: functional
T6 sequence (Q38C41 whole entry): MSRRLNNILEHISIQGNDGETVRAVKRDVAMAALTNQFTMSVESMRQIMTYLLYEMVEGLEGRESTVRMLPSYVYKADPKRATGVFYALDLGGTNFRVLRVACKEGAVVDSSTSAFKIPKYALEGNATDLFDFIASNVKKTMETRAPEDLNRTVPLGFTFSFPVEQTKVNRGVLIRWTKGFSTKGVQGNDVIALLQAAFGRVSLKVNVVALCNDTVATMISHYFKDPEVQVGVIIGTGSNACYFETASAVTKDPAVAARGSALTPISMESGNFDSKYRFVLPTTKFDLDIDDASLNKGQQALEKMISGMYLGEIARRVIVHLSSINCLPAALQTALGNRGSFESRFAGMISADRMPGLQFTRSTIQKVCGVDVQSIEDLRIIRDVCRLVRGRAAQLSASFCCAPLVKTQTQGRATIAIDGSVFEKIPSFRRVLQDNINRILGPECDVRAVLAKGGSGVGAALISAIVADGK

[16] = biological target: DNA dC->dU-editing enzyme APOBEC-3G (Homo sapiens, UniProt Q9HC16); assay: Dose Response confirmation of small molecule APOBEC3G DNA Deaminase Inhibitors via a fluorescence-based single-stranded DNA deaminase assay. [Related pubchem assays (depositor defined):AID493012, AID493028]; format: functional
Saccharomyces cerevisiae = assay: NALP1 inhibitor project selectivity study, Caspase-1/ASC signal blockade IC50 in S. cerevisiae (AID 488863); format: functional, organism-based
[17] = biological target: NACHT, LRR and PYD domains-containing protein 1 (Homo sapiens, UniProt Q9C000); assay: NALP1 inhibitors in yeast, dose response, luminescent (AID 488860); format: functional
[18] = biological target: T1, G-protein coupled receptor 55; assay: GPR55 agonists via beta-arrestin recruitment, primary screen, imaging, U2OS cells, beta-arrestin-GFP redistribution (AID 1961); format: functional
Vero [19] = assay: West Nile virus cytopathic effect inhibition, cell-based (AID 2419); format: functional; conditions: Chlorocebus sabaeus
Vero [20] = assay: West Nile virus antiviral activity, cell-based, CPE readout (AID 1621); format: functional; conditions: Chlorocebus sabaeus
Vero [21] = assay: West Nile virus CPE inhibition, SAR follow-up, cell-based, synthesized analogs (AID 2238); format: functional; conditions: Chlorocebus sabaeus
Vero [22] = assay: Vero E6 cell cytotoxicity, SAR follow-up, cytotoxicity control for West Nile virus antiviral project, synthesized analogs (AID 2244); format: functional; conditions: Chlorocebus sabaeus
Vero [23] = assay: cytotoxicity of synthesized analogs in Vero 76, SAR follow-up, cytotoxicity control for West Nile virus antiviral project, Vero 76 cells (AID 2414); format: functional; conditions: Chlorocebus sabaeus
Vero [24] = assay: cytotoxicity of synthesized analogs in Vero cells, SAR follow-up, cytotoxicity control for West Nile virus antiviral project, cell-based, set II (AID 2402); format: functional; conditions: Chlorocebus sabaeus
Coagulation factor XII = biological target: T7, Coagulation factor XII (Homo sapiens, UniProt P00748); assay: FXIIa inhibitor potency, concentration-response, biochemical (AID 716); format: functional
T7 sequence (P00748 whole entry): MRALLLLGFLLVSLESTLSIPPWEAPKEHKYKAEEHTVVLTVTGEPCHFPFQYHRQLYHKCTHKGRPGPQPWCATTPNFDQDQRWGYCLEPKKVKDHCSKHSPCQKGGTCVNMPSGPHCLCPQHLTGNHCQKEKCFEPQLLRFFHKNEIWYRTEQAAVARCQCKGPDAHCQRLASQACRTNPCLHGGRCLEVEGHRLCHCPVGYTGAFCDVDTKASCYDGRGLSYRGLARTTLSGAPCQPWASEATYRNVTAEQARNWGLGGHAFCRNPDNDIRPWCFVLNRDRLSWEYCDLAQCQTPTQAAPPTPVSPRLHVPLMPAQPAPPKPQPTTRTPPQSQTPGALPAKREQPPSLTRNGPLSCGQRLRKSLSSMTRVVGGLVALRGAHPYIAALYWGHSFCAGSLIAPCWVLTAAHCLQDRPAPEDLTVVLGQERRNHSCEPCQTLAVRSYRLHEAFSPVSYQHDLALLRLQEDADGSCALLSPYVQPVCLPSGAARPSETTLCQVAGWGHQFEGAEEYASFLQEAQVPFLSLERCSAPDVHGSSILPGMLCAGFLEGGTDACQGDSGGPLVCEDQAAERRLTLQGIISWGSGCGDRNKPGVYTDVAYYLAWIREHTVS

H9c2 = assay: cells; format: functional, cell-based; conditions: Rattus norvegicus, H9c2, Myocardium;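 also: confirmatory concentration-response retest of ultra-high-throughput screening hits for modulation of myocardial damage; cell death induced by hydrogen peroxide oxidative stress; compound pretreatment for 60 min then peroxide exposure for 2 h; potency is for protecting the cells against peroxide damage rather than for killing them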
[25] = biological target: E3 ubiquitin-protein ligase Mdm2/Protein Mdm4 (Homo sapiens, UniProt O15151+Q00987); assay: Mdm2-MdmX interaction inhibitors, dose response, luminescence detection (AID 504593); format: functional
[26] = biological target: Alkaline phosphatase, placental type (Homo sapiens, UniProt P05187); assay: PLAP enzyme inhibitors, confirmation, biochemical, luminescence (AID 1512); format: functional
Sequence of Alkaline phosphatase, placental type (P05187 whole entry): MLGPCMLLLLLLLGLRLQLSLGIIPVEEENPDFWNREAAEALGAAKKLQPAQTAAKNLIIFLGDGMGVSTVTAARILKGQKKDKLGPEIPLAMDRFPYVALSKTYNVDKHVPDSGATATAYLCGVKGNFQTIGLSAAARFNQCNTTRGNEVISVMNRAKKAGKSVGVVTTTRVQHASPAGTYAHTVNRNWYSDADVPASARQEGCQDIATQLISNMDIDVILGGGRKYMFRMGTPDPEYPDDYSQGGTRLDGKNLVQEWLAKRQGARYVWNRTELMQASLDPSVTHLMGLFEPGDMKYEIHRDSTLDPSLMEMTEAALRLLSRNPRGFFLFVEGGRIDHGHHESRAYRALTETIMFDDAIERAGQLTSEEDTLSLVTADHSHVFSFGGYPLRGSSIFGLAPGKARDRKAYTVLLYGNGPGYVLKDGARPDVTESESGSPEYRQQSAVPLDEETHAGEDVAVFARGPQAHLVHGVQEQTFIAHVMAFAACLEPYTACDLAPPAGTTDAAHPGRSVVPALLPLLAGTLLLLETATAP

T1 sequence (Q9Y2T6 whole entry): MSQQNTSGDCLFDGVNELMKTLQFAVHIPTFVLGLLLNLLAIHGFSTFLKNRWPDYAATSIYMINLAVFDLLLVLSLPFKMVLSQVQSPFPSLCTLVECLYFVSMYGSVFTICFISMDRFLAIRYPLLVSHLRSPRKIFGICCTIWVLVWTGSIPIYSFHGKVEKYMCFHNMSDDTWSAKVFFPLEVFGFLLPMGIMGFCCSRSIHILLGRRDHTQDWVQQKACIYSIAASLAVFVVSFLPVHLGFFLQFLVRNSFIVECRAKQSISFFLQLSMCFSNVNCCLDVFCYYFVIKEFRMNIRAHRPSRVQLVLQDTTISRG
T3 sequence (Q932Y6 whole entry): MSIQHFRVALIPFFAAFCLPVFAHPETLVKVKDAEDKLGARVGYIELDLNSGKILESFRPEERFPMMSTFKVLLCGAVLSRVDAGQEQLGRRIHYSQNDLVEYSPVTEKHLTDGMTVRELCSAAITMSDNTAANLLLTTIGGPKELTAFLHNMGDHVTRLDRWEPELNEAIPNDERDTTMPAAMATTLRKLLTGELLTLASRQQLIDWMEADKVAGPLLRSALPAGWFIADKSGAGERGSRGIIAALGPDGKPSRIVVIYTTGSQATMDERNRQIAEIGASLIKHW
Sequence of DNA dC->dU-editing enzyme APOBEC-3G (Q9HC16 whole entry): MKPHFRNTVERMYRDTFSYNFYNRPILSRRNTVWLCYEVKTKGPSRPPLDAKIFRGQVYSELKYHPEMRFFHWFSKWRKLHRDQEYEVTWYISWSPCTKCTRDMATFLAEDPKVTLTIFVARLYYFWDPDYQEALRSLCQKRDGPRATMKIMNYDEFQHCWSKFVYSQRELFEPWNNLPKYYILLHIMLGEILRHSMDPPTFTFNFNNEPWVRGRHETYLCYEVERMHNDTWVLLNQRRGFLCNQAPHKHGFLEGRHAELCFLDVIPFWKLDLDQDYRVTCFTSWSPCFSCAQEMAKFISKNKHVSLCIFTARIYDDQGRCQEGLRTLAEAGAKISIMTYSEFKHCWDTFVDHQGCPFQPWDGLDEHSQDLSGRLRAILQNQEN
Sequence of Phosphoethanolamine/phosphocholine phosphatase (Q8TCT1 whole entry): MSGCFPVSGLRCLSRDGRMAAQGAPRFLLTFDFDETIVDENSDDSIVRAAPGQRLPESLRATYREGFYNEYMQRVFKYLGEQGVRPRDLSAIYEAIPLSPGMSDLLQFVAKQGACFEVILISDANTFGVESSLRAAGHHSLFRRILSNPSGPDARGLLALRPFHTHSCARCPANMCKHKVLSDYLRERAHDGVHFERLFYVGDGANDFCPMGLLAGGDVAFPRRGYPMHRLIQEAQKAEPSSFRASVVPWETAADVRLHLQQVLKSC
Sequence of DNA dC->dU-editing enzyme APOBEC-3A (P31941 whole entry): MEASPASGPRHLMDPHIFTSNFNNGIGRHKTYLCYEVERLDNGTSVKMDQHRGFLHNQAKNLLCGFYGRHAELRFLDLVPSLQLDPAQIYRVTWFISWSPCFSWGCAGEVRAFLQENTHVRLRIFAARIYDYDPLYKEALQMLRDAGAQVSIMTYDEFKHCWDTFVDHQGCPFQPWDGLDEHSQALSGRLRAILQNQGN
Sequence of Mitochondrial peptide methionine sulfoxide reductase (P54149 whole entry): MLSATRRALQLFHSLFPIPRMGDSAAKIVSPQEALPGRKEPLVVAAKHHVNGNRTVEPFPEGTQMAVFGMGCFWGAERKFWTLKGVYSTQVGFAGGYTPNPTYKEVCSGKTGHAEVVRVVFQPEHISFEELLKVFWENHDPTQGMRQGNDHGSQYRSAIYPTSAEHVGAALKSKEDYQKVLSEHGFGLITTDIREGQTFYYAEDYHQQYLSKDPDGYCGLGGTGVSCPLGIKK
Sequence of NACHT, LRR and PYD domains-containing protein 1 (Q9C000 1-1212 limits assumed): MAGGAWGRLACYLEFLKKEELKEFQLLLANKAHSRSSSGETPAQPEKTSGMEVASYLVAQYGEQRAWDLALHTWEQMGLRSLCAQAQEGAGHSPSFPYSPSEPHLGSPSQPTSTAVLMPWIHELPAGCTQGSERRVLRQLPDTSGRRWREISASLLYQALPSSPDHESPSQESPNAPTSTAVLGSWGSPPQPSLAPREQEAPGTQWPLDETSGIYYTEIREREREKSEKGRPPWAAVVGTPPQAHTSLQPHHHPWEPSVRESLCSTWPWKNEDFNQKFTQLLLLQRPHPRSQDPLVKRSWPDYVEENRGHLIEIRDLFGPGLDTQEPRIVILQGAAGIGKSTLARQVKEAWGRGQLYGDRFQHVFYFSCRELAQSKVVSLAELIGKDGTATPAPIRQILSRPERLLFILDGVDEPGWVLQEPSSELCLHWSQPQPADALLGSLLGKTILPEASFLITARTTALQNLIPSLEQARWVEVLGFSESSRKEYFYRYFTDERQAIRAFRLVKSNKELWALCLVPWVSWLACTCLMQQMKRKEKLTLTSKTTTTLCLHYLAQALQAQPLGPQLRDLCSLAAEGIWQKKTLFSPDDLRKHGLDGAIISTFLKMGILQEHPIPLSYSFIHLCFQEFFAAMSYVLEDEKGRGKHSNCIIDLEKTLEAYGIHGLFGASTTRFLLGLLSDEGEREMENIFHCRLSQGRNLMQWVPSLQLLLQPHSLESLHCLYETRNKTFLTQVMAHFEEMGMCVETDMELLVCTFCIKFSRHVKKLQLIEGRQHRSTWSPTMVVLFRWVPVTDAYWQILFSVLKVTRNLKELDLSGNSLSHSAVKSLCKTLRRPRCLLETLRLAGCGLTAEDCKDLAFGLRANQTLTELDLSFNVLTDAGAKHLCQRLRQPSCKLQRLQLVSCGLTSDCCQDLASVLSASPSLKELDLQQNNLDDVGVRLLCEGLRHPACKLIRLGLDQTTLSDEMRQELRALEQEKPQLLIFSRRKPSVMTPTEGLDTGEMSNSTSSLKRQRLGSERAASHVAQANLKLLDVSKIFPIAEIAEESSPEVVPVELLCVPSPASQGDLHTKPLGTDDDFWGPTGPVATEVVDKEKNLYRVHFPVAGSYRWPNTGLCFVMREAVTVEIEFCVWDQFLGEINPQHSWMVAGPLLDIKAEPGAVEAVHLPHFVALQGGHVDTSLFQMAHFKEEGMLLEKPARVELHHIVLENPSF
Sequence of NACHT, LRR and PYD domains-containing protein 1 (Q9C000 1213-1473 limits assumed): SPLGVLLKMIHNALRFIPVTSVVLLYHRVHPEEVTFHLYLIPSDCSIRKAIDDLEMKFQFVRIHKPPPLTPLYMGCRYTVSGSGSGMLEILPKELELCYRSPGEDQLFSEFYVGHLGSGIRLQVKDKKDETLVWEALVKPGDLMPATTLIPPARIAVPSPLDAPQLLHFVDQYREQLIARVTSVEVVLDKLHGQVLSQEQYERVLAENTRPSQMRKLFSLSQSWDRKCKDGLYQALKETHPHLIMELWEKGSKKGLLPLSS
Sequence of E3 ubiquitin-protein ligase Mdm2/Protein Mdm4 (Q00987 whole entry): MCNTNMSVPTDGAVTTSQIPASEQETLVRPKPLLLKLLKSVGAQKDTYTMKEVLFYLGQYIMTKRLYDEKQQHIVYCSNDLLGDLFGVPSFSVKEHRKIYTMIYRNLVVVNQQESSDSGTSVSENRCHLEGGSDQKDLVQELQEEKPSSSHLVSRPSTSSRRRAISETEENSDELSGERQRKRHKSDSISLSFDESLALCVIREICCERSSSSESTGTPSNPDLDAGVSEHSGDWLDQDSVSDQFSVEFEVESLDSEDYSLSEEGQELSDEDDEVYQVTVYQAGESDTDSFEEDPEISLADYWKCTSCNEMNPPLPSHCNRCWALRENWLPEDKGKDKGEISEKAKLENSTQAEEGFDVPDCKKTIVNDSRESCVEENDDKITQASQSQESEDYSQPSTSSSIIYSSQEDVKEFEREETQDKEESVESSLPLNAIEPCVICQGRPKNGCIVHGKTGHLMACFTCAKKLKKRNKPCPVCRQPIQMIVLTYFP
Sequence of E3 ubiquitin-protein ligase Mdm2/Protein Mdm4 (O15151 whole entry): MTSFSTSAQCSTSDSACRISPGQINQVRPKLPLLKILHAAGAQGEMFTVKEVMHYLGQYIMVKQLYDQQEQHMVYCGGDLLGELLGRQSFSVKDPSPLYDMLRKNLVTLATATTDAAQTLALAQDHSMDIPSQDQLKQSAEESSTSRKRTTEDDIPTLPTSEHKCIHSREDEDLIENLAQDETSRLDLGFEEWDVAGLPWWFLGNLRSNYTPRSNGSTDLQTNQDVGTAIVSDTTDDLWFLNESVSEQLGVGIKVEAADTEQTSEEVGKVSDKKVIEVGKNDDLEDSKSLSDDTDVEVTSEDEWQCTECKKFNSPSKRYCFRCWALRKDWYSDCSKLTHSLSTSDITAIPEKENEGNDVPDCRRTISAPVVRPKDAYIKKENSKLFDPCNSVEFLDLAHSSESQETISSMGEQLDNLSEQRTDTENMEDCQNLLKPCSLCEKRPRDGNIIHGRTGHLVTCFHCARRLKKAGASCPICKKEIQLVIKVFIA

CCCCNS(=O)(=O)c1ccc(NC(=O)C(Sc2ccccc2)c2ccccc2)cc1 (stereo not drawn)
active: EC50 [2] 14 µM | EC50 [3] 12.2 µM | EC50 [4] 13.9 µM | IC50 [6] 1.12 µM
> 120 µM (not active): EC50 [1] | EC50 [5]

O=c1c2cc(F)ccc2sn1-c1ccccc1
inactive: IC50 [7] > 100 µM | IC50 (Beta Lactamase [8]) 23.7 µM | EC50 [11] > 104 µM | IC50 [13] > 100 µM | IC50 (Beta Lactamase [14]) 23 µM
active: IC50 (Phosphomannomutase 2) 88.3 µM | IC50 [9] 35.5 µM | IC50 [10] 4.59 µM | IC50 (CHO) 5.8 µM | CC50 [12] 100 µM | IC50 [15] 0.792 µM | IC50 (Hexokinase) 1.03 µM | IC50 [16] 8.82 µM

COC(=O)c1sccc1NC(=O)c1csc(C)c1
active: IC50 (Saccharomyces cerevisiae) 60.4 µM | IC50 [17] 15.9 µM

O=C(O)c1cccc(CSc2nnc(-c3ccc(Cl)cc3Cl)[nH]2)c1
active: EC50 [18] 6.41 µM

O=C(CSc1nc2ccccc2c(=O)n1-c1ccc(F)cc1F)Nc1ccc2c(c1)CCC2
active: IC50 (Vero [19]) 173 µM | IC50 (Vero [20]) 11.8 µM | IC50 (Vero [21]) 45 µM | CC50 (Vero [22]) > 80 µM | CC50 (Vero [23]) > 16.7 µM | CC50 (Vero [24]) > 200 µM

CC(C)CC(c1nnnn1Cc1ccco1)N1CCN(C2CCCC2)CC1 (stereo not drawn)
inactive: IC50 (Coagulation factor XII) > 50 µM

CC(=O)c1ccc(-c2ccc(C(=O)Nc3nc(-c4ccccn4)cs3)o2)cc1
active: IC50 [25] 3.97 µM
inactive: IC50 (H9c2) > 79 µM

O=C(CSc1nnc(-c2ccco2)[nH]1)c1ccc(O)c(O)c1
active: IC50 [13] 21.7 µM | IC50 [26] 12.2 µM
